Results on three molecules are retold here after US20240156972A1 (priority 2021, published 2024).

Series [1] has as its system PSMA-expressing human embryonic kidney (HEK) cells. Description: ARM 1.2-mediated ADCP by U937 human monocytes, 2-color flow cytometry. Format: cell-based. The procedure: ADCP of PSMA-expressing human cells by human monocytes was assessed in the presence of ARM 1.2 and anti-gD1 mouse IgG2a antibody (FIG. 12). ADCP was determined by 2-color flow cytometry assays, where target cell phagocytosis was measured by double positive cell events consisting of FL-1 dye-labeled U937 human monocytes and FL-4 dye-labeled engineered human embryonic kidney (HEK) cells expressing PSMA.
Robust ADCP was only observed when cell surface PSMA and anti-HSV antibody are both present (HEK+_EXP).

The nature of series [2]: Stability of covalent antibody-binding peptides in 1×PBS by LC-HRMS. Format: physicochemical. The following applies: 500 μM, room temperature. How it is done:
Liquid chromatography-high resolution mass spectrometry (LC-HRMS) data was obtained on a BRUKER MicroTOF II mass spectrometer. Samples were dissolved in 1×PBS at 500 μM concentrations and were monitored for stability at room temperature over indicated periods of time. Specific m/z −20 amu (loss of H^+ and F^−) and m/z −2 amu (F/OH exchange) masses were monitored to probe off-pathway cyclization and hydrolysis reactions, respectively.
To evaluate the stability of peptide 5 (gDR(F10FSY)), the peptide (500 μM) was incubated in 1×PBS at room temperature and analyzed by LC-HRMS at 0, 24, 48 and 72 hours (FIG. 83). […] Hydrolyzed peptide appeared to elute just before intact peptide after 3 days of incubation.
To evaluate the stability of peptide 7 (ASF-gDR), the peptide (500 μM) was incubated in 1×PBS at room temperature and analyzed by LC-HRMS at 0, 24, 48 and 72 hours.

A short description of series [3]: Stability of aryl sulfonyl fluoride group in PBS by 19F NMR. The class given is physicochemical. The following applies: PBS (90% PBS), 10% D2O, room temperature, F− appearance, read-out: half-life of sulfonyl fluoride hydrolysis (converted). The procedure: A 700 MHz NMR was used to measure ^19F NMR spectra. Bruker TopSpin 4.0.9 was used to process and analyze spectra. GraphPad Prism 8 software was used to visualize and perform non-linear regression of acquired data.
Peptide 7 (ASF-gDR) was used to investigate the stability of the meta-aryl sulfonyl fluoride (ASF) group in 1×PBS at room temperature. The sample was prepared at a 0.5 mM concentration in 90% PBS, 10% D2O. A 700 MHz NMR was used to monitor sulfonyl fluoride disappearance and fluoride (F^− (aq)) appearance overtime, relative to a TFA internal standard. To quantify fluoride loss and gain, peaks were positively phased and integrated relative to the TFA internal standard, which was held constant at three fluoride atoms. A plot of fluoride leaving group appearance over time was fitted with the first order decay equation.
Half-life was calculated from a plot of integrated F^− over time using Equation 1.

A word on the half-life: it is how long it takes for the measured level to halve.

Numbered stars: 1 amine (or outer) side, 2 acyl side, 3 side chain; on linkers, the order of the positions; unused ones are H or OH. Square brackets hold non-standard residues; d marks the D form. Peptide text beside a SMILES is read from it. X1 = O=C(C(Cc1cccc(S(=O)(=O)F)c1)N[*:1])[*:2]; Lys(N3) = [N-]=[N+]=NCCCC[C@H](N)C(=O)O; X2 = N=C(N)CCCC[C@H](N[*:1])C(=O)[*:2]; Y‑OSO2F = fluorosulfate Tyr; N3‑K = azido-Lys

Regarding `CSCC[C@H](NC(=O)[C@@H](C)NC(=O)[C@@H](CC(=O)O)NC(=O)[C@H]1CCCN1C(=O)[C@@H](CC(N)=O)NC(=O)[C@H](CCCNC(=N)N)NC(=O)[C@@H](Cc1ccccc1)NC(=O)[C@H](CCCNC(=N)N)NC(=O)CNC(=O)[C@H](CCCCN)NC(=O)[C@@H](CC(=O)O)NC(=O)[C@H](CC(C)C)NC(=O)[C@H](CCCCn1cc(COCCOCCOCCOCCOCCOCCOCCOCCNC(=O)NCCCC[C@H](NC(=O)N[C@@H](CCC(=O)O)C(=O)O)C(=O)O)nn1)NC(C)=O)C(=O)N[C@H](CCCCN)C(=O)N[C@@H](CC(C)C)C(N)=O` [ARM 1.2, GUL-PEG8-HSVqD1], the ADCP result in series [1] (HEK+_EXP: cell surface PSMA and anti-HSV antibody both present) was “Robust ADCP”. Besides, the “ADCP in control samples” value in series [1] (isotype IgG, no antibody, free competitor, or HEK cells without PSMA) is “complete lack of ADCP”.

For the molecule `CSCC[C@H](NC(=O)[C@H](CCCCC(=N)N)NC(=O)[C@H](CC(C)C)NC(=O)[C@H](CCCCN=[N+]=[N-])NC(=O)C(Cc1cccc(S(=O)(=O)F)c1)NC(C)=O)C(=O)N[C@@H](C)C(=O)N[C@@H](CC(=O)O)C(=O)N1CCC[C@H]1C(=O)N[C@@H](CC(N)=O)C(=O)N[C@@H](CCCNC(=N)N)C(=O)N[C@@H](Cc1ccccc1)C(=O)N[C@@H](CCCNC(=N)N)C(=O)NCC(=O)N[C@@H](CCCNC(=N)N)C(=O)N[C@@H](CC(=O)O)C(=O)N[C@@H](CC(C)C)C(N)=O` (some centres unmarked) [Peptide 7] (Ac-[X1][Lys(N3)]L[X2]MADPNRFRGRDL-NH2), in series [2] (after 24 hours), the SuFEx hydrolysis is ~50%. Besides, in series [3], the half-life at 0.5 mM is 8.71 h.

In the case of “Ac-(N3-K)-LRMADPNR-(Y-OSO2F)-RGRDL ({Ac-N3‑K}-LRMADPNR-{Y‑OSO2F-Arg-Gly-Arg-Asp-Leu-NH2}) [Peptide 5]”, the “stability by LC-HRMS” value in series [2] (0-72 hours) is on record as “stable compound”.
